Assay results as given in US20220142958A1, “MEDICINAL COMPOSITION HAVING EXCELLENT STABILITY” (EA Pharma Co., Ltd., priority 2019, published 2022).

Assays:
[1] = Example 4B: residual ratio at 50, 60, 70° C. and Arrhenius estimation at 25° C.; type: physicochemical; conditions: for Kobs: estimation at 25° C. (Arrhenius plot); for Residual ratio (%) estimation: estimation at 25° C.
Method: According to Table 13, Compound A1 was dissolved at 2 concentrations in each of the buffer solutions having a pH at each of both ends of Example 4A. Each of these solutions was dispensed into a glass vial and stored at each of 50° C., 60° C., and 70° C. After the storage, a residual ratio was calculated according to a test method described below.
Test method: In the solution after the storage, the residual ratio was analyzed according to a normal method using a liquid chromatography apparatus Prominence (manufactured by Shimadzu Corporation) and an ultraviolet absorptiometer (measurement wavelength: 254 nm, Prominence (manufactured by Shimadzu Corporation)). At this time, SUMIPAX ODS (3 mm×150 mm, […], manufactured by SCAS) was used as a column.
The calculation for obtaining the residual ratio (%) of Compound A1 during each storage period is as follows.
Residual ratio (%) of Compound A1 during each storage period=peak area of Compound A1 in sample solution/peak area of Compound A1 in standard solution×100
Here, “Compound A1 in standard solution” refers to a solution obtained by dissolving Compound A1 in each of the buffer solutions shown in Table 13 so that a concentration was 0.1 mg/mL, and then storing the solution at 5° C. It was clear from the results of Example 1 that the solution of Compound A1 was stable when being stored at 5° C., and thus, the solution was used as the standard solution.
The reaction rate constant at each of the storing temperatures was calculated using the obtained residual ratio. The Arrhenius plot was performed to calculate the reaction rate constant (h^−1) at an arbitrary temperature. As an example, the residual ratio estimation at 25° C. is shown in Table 15 and described in FIG. 1.

male beagles = assay: Emetogenicity of Compound A1 in dogs; type: in vivo, dog; conditions: for Number of vomiting cases/Number of administration: Intravenous
Method: A crossover trial was conducted with male beagles (Nosan Beagle, 14 to 87-month-old, weight: 10.2 kg to 15.8 kg). The Compound A1 solutions used in Reference Example 2 were given at 0.3, 1 and 10 mg/kg by bolus administration (0.5 mL/kg, 1 mL/sec) to 3 to 6 dogs per dose to confirm the manifestation of vomiting immediately after the administration. Administration was conducted once or twice a week with an interval of 2 days or longer. Administration was conducted prior to feeding. Symptoms prior to, immediately after, and 15 and 30 minutes after the administration were observed.

[2] = test system: healthy Japanese male adults; assay: Phase I clinical trial (P1), single intravenous dose; type: in vivo, human
Method: Thirty-two healthy Japanese male adults were given a single intravenous dose of the test drug (Compound A1) at 0.01 mg, 0.1 mg, 1.0 mg or 2.5 mg in a fasted state to study the pharmacokinetics, pharmacodynamics and safety by a double-blind test using a placebo as a control. Here, the trial drug was administered by diluting a required dose taken from the Compound A1 vial formulation prepared as follows with sterilized water for injection, and filling a syringe with the resultant in accordance with the dose to be administered.
A vial formulation encapsulating 100 mg of Compound A1 in terms of a dehydrate, and sodium chloride, disodium hydrogen phosphate dodecahydrate, and sodium dihydrogen phosphate dihydrate as additives in 10 ml of sterilized water for injection

[3] = single intravenous doses of 0.01, 0.1, 1.0 and 2.5 mg

Compound: Cc1c(Cl)cc(S(=O)(=O)[O-])cc1NC(=O)NC[C@H](N)C(=O)O.[Na+] [Compound A1, sodium 3-{[(2S)-2-amino-2-carboxyethyl]carbamoylamino}-5-chloro-4-methylbenzenesulfonate]
- Kobs ([1]; pH 1.1, 0.1 mg/mL): 3.01e-06 h⁻¹
- Kobs ([1]; pH 1.1, 10 mg/mL): 5.55e-06 h⁻¹
- Kobs ([1]; pH 7.0, 0.1 mg/mL): 3.1e-06 h⁻¹
- Kobs ([1]; pH 7.0, 10 mg/mL): 5.73e-06 h⁻¹
- Residual ratio (%) estimation ([1]; pH 1.1, 0.1 mg/mL, 3M): 99.4%
- Residual ratio (%) estimation ([1]; pH 1.1, 0.1 mg/mL, 6M): 98.7%
- Residual ratio (%) estimation ([1]; pH 1.1, 0.1 mg/mL, 12M): 97.4%
- Residual ratio (%) estimation ([1]; pH 1.1, 10 mg/mL, 3M): 98.8%
- Residual ratio (%) estimation ([1]; pH 1.1, 10 mg/mL, 6M): 97.6%
- Residual ratio (%) estimation ([1]; pH 1.1, 10 mg/mL, 12M): 95.3%
- Residual ratio (%) estimation ([1]; pH 7.0, 0.1 mg/mL, 3M): 99.3%
- Residual ratio (%) estimation ([1]; pH 7.0, 0.1 mg/mL, 6M): 98.7%
- Residual ratio (%) estimation ([1]; pH 7.0, 0.1 mg/mL, 12M): 97.4%
- Residual ratio (%) estimation ([1]; pH 7.0, 10 mg/mL, 3M): 98.8%
- Residual ratio (%) estimation ([1]; pH 7.0, 10 mg/mL, 6M): 97.6%
- Residual ratio (%) estimation ([1]; pH 7.0, 10 mg/mL, 12M): 95.2%
- storage stability ([1]; formulation with pH of 1.1 and 7.0, 25° C., over 12 months (estimation)): excellent storage stability
- Residual ratio (%) ([1]; pH 1.1, 0.1 mg/mL, 50° C., 23 hours): 98.9%
- Residual ratio (%) ([1]; pH 1.1, 0.1 mg/mL, 50° C., 141 hours): 96.9%
- Residual ratio (%) ([1]; pH 1.1, 0.1 mg/mL, 50° C., 570 hours): 92.3%
- Residual ratio (%) ([1]; pH 1.1, 0.1 mg/mL, 60° C., 23 hours): 97.8%
- Residual ratio (%) ([1]; pH 1.1, 0.1 mg/mL, 60° C., 141 hours): 92.0%
- Residual ratio (%) ([1]; pH 1.1, 0.1 mg/mL, 60° C., 570 hours): 76.7%
- Residual ratio (%) ([1]; pH 1.1, 0.1 mg/mL, 70° C., 23 hours): 94.5%
- Residual ratio (%) ([1]; pH 1.1, 0.1 mg/mL, 70° C., 141 hours): 76.8%
- Residual ratio (%) ([1]; pH 1.1, 0.1 mg/mL, 70° C., 570 hours): 35.5%
- Residual ratio (%) ([1]; pH 1.1, 10 mg/mL, 50° C., 23 hours): 96.2%
- Residual ratio (%) ([1]; pH 1.1, 10 mg/mL, 50° C., 141 hours): 96.4%
- Residual ratio (%) ([1]; pH 1.1, 10 mg/mL, 50° C., 570 hours): 89.5%
- Residual ratio (%) ([1]; pH 1.1, 10 mg/mL, 60° C., 23 hours): 96.4%
- Residual ratio (%) ([1]; pH 1.1, 10 mg/mL, 60° C., 141 hours): 95.6%
- Residual ratio (%) ([1]; pH 1.1, 10 mg/mL, 60° C., 570 hours): 73.4%
- Residual ratio (%) ([1]; pH 1.1, 10 mg/mL, 70° C., 23 hours): 92.5%
- Residual ratio (%) ([1]; pH 1.1, 10 mg/mL, 70° C., 141 hours): 84.2%
- Residual ratio (%) ([1]; pH 1.1, 10 mg/mL, 70° C., 570 hours): 36.5%
- Residual ratio (%) ([1]; pH 7.0, 0.1 mg/mL, 50° C., 23 hours): 99.6%
- Residual ratio (%) ([1]; pH 7.0, 0.1 mg/mL, 50° C., 141 hours): 97.7%
- Residual ratio (%) ([1]; pH 7.0, 0.1 mg/mL, 50° C., 570 hours): 90.9%
- Residual ratio (%) ([1]; pH 7.0, 0.1 mg/mL, 60° C., 23 hours): 98.2%
- Residual ratio (%) ([1]; pH 7.0, 0.1 mg/mL, 60° C., 141 hours): 89.2%
- Residual ratio (%) ([1]; pH 7.0, 0.1 mg/mL, 60° C., 570 hours): 63.9%
- Residual ratio (%) ([1]; pH 7.0, 0.1 mg/mL, 70° C., 23 hours): 93.8%
- Residual ratio (%) ([1]; pH 7.0, 0.1 mg/mL, 70° C., 141 hours): 68.0%
- Residual ratio (%) ([1]; pH 7.0, 0.1 mg/mL, 70° C., 570 hours): 21.1%
- Residual ratio (%) ([1]; pH 7.0, 10 mg/mL, 50° C., 23 hours): 100.0%
- Residual ratio (%) ([1]; pH 7.0, 10 mg/mL, 50° C., 141 hours): 98.0%
- Residual ratio (%) ([1]; pH 7.0, 10 mg/mL, 50° C., 570 hours): 89.0%
- Residual ratio (%) ([1]; pH 7.0, 10 mg/mL, 60° C., 23 hours): 97.2%
- Residual ratio (%) ([1]; pH 7.0, 10 mg/mL, 60° C., 141 hours): 86.3%
- Residual ratio (%) ([1]; pH 7.0, 10 mg/mL, 60° C., 570 hours): 61.0%
- Residual ratio (%) ([1]; pH 7.0, 10 mg/mL, 70° C., 23 hours): 91.7%
- Residual ratio (%) ([1]; pH 7.0, 10 mg/mL, 70° C., 141 hours): 64.4%
- Residual ratio (%) ([1]; pH 7.0, 10 mg/mL, 70° C., 570 hours): 22.2%
- Number of vomiting cases/Number of administration (male beagles; 0.3 mg/kg): 0/3
- Number of vomiting cases/Number of administration (male beagles; 1 mg/kg): 0/3
- Number of vomiting cases/Number of administration (male beagles; 10 mg/kg): 1/6
- therapeutic margin with respect to vomiting (dog C0 vs human C0) (male beagles; dog 1 mg/kg vs human 0.1 mg/man): ≥ 430 times
- serum iPTH concentration compared to that before the administration ([2]; 0.01 mg and higher dose groups): decreased
- safety (side effects) ([2]; 1.0 mg and higher dose groups): non-severe and mild side effects such as vomiting
- duration of decreased serum iPTH concentration ([2]; relation to given dose): extended with the increase in the given dose
- form excreted into the urine ([2]; single intravenous doses): mostly as unchanged substances
- main elimination pathway of the unchanged substance ([2]; single intravenous doses): renal excretion
- elimination from the plasma [2, 3]: rapidly eliminated
- form present in the plasma [2, 3]: generally unchanged substances
